Consider 32 compounds from USRE38330E1, “Preventing and reversing advanced glycosylation endproducts” (Alteon Inc., priority 1995, dated 2003).

Data set [1] addresses T1, cross-linking of glycated bovine serum albumin (AGE-BSA) to the rat tail tendon collagen (Bos taurus, UniProt P02769).
T1 construct: glycated bovine serum albumin (AGE-BSA); from tissue; host or cells: collagen from rat tail tendon; BSA from bovine serum, glycated in house
Put plainly: Inhibition of cross-linking of glycated BSA (AGE-BSA) to rat tail tendon collagen coated 96-well plate (ELISA). In kind it is biochemical. The protocol:
The cross-linked AGE-BSA to the tail tendon coated plate was then quantitated by the polyclonal antibody raised against AGE-RNase.
The % inhibition of each test compound was calculated as follows.

The target in data set [2] is T2, AGE-BSA previously crosslinked to the collagen (Bos taurus, UniProt P02769).
T2 construct: Type V BSA (bovine serum albumin); purchased Calbiochem (BSA Type V); Collaborative Biomedical Products (Biocoat rat tail collagen type I plates)
T2 sequence (P02769 25-607): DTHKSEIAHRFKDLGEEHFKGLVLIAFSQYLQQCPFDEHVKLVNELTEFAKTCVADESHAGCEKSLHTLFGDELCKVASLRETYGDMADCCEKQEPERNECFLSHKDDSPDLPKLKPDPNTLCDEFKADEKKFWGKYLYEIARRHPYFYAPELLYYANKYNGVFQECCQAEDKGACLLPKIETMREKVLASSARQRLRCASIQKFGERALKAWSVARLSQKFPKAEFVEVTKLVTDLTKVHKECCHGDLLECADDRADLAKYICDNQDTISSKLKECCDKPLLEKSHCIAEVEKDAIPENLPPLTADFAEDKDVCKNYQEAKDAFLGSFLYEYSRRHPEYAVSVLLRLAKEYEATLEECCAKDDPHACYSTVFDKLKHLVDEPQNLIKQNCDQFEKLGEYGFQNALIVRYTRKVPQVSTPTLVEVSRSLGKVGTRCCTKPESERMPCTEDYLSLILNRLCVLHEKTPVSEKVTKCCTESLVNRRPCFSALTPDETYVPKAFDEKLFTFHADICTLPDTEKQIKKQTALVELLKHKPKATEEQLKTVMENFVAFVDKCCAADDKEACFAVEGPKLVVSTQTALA
T2 sequence (P02454 152-1207 partner limits assumed): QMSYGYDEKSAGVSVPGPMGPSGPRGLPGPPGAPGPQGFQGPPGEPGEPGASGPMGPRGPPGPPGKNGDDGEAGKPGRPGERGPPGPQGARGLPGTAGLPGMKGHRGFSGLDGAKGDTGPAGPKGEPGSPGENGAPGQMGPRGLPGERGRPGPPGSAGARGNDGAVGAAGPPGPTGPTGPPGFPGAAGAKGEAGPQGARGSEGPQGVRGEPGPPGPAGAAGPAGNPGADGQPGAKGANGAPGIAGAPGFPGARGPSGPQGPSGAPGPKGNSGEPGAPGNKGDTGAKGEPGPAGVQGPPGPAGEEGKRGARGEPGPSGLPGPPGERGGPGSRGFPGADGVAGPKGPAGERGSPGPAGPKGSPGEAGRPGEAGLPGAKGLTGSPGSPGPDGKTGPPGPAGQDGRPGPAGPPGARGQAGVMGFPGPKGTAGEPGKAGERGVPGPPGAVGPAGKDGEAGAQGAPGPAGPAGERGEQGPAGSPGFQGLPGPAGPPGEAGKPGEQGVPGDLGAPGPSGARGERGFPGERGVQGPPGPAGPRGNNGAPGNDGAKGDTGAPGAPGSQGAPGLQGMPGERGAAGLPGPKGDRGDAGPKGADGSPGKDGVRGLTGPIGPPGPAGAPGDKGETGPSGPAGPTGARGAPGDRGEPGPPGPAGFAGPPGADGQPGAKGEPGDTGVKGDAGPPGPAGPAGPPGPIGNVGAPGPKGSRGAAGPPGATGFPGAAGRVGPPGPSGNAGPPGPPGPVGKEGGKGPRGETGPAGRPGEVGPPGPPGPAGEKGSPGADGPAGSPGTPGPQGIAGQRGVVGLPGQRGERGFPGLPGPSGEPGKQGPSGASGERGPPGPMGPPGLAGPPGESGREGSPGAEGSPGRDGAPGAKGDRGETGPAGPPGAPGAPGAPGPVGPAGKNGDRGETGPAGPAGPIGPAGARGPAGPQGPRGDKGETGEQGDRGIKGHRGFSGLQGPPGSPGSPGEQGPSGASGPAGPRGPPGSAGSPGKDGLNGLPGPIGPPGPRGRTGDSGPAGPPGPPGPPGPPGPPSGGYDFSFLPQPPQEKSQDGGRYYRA
T2 sequence (P02466 86-1125 partner limits assumed): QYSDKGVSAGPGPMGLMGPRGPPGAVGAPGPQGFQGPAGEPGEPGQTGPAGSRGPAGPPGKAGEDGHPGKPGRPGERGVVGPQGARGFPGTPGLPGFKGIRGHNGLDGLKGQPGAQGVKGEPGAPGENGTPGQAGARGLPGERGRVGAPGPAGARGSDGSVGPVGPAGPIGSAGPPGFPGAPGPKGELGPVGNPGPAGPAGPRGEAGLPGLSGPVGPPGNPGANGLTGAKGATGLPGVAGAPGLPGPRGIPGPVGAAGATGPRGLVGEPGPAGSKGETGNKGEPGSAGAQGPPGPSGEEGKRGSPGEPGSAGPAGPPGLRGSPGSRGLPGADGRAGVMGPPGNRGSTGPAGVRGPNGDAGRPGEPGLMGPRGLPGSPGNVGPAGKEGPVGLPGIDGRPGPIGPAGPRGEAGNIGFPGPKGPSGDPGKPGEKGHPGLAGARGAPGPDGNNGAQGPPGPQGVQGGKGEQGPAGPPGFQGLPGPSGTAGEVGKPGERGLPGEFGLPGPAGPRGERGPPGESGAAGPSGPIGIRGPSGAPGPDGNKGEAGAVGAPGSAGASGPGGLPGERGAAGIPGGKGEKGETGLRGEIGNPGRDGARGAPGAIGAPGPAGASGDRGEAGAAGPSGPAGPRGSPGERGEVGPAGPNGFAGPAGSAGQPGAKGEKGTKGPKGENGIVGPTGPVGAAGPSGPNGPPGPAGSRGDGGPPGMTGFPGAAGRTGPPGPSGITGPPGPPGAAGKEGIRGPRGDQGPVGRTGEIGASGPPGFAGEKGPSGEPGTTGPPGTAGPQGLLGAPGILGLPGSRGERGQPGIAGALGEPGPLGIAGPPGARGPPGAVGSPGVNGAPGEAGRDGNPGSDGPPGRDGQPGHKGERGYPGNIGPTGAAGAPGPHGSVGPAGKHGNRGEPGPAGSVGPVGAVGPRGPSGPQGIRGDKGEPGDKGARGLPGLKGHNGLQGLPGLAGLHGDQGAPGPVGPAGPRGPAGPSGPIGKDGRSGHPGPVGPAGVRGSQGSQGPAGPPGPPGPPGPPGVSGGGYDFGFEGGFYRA
Put plainly: Sandwich enzyme immunoassay for breaking of AGE moieties from AGE-BSA crosslinked to collagen (AGE breaker assay). In kind it is biochemical, bovine; rat. To be noted: for IC50: AGE breaking, 16 hours 37° C. The procedure:
The present invention also involves a novel sandwich enzyme immunoassay used to ascertain the ability of test compounds to “break” or reverse already formed advanced glycosylation endproducts by detecting the breaking of AGE (Advanced glycosylation endproduct) moieties from AGE-crosslinked protein. This assay comprises:
a) incubation of AGE-modified bovine serum albumin (AGE-BSA) on collagen-coated wells of microtiter plates for a period of 2-6 hours at a temperature of 37° C.;
b) washing of the wells with PBS-Tween;
c) application of the test compounds to the washed wells of step b;
d) incubation of the test compounds applied to the washed wells for an additional 12-24 hours at a temperature of about 37° C.; and
e) detection of the AGE-breaking using an antibody raised against AGE-ribonuclease or cross-link breaking with an antibody against BSA.
In order to ascertain the ability of the compounds of the instant invention to “break” or reverse already formed advanced glycosylation endproducts, a novel sandwich enzyme immunoassay was developed which detects breaking of AGE (Advanced glycosylation endproduct) moieties from AGE-crosslinked protein. The assay utilizes collagen-coated 96 will microtiter plates that are obtained commercially. AGE-modified protein (AGE-BSA) is incubated on the collagen-coated wells for four hours, is washed off the wells with PBS-Tween and the test compounds are added. Following an incubation period of 16 hours (37° C.) AGE-breaking is detected using an antibody raised against AGE-ribonuclease or with an antibody against BSA. […] Details of the assay are as follows:
1. AGE-BSA stock solutions were prepared as follows. Sodium phosphate buffer (0.4M) was prepared by dissolving 6 grams of monobasic sodium phosphate in 100 ml of distilled water, 7 grams of dibasic sodium phosphate (0.4M) in 100 ml of distilled water and adjusting the pH of the dibasic solution to 7.4 with the monobasic solution. Sodium azide (0.02 grams) was added per 100 ml volume to inhibit bacterial growth. The BSA solution was prepared as follows: 400 mg of Type V BSA (bovine serum albumin) was added for each ml of sodium phosphate buffer (above). A 400 mM glucose solution was prepared by dissolving […] of dextrose in 100 ml of sodium phosphate buffer (above). The BSA and glucose solutions were mixed 1:1 and incubated at 37° C. for 12 weeks. The pH of the incubation mixture was monitored weekly and adjusted to pH 7.4 if necessary. After 12 weeks, the AGE-BSA solution was dialyzed against PBS for 48 hours with four buffer changes, each at a 1:500 ratio of solution to dialysis buffer. Protein concentration was determined by the micro-Lowry method. The AGE-BSA stock solution was aliquoted and stored at −20° C.
2. Working solutions for crosslinking and breaking studies were prepared as follows. Test compounds were dissolved in PBS and the pH was adjusted to pH 7.4 if necessary. AGE-BSA stock solution was diluted in PBS to measure maximum crosslinking and in the inhibitor solution for testing inhibitory activity of compounds. The concentration of AGE-BSA necessary to achieve the optimum sensitivity was determined by initial titration of each lot of AGE-BSA.
3. Wash buffer (“PBS-Tween”) was prepared as follows. PBS was prepared by dissolving the following salts in one liter of distilled water: NaCl, 8 grams; KCl, 0.2 gram, KH2PO4. […] Tween-20 was added to a final concentration of 0.05% (vol/vol).
4. Substrates for detection of secondary antibody binding were prepared by diluting the HRP substrate buffer 1:10 in distilled water and mixing with ABTS chromogen 1:50 just prior to use.
1. Biocoat plates were blocked With 300 μl of “Superbloc”. Plates were blocked for one hour at room temperature and were washed with PBS-Tween three times with the Dynatech platewasher before addition of test reagents.
2. Each experiment was set up in the following manner.

Where [3] appears, read: detection with anti-AGE-RNase antibody, read-out: IC50 (mM) Anti-AGE.
The mark [4] stands for this setting: detection with anti-BSA antibody, read-out: IC50 (mM) Anti-BSA.
Setting [5] is: read-out: % Inhibition Anti-AGE (at mM).
Setting [6] is: read-out: % Inhibition Anti-BSA (at mM).

Structures can show the parent of a compound that is named as a salt. Where two headings read alike, the source gives them in different places.

T1 sequence (P02769 25-607): as the sequence (P02769 25-607) above

What is called IC50 is the midpoint of a concentration-inhibition curve. As a reminder, the melting point is the temperature, or range, at which the solid turns liquid. For the compound `NC(=O)C[n+]1csc2ccccc21.[Br-]` [3-(2-amino-2-oxoethyl)-benzothiazolium bromide], the melting point fell in the range of 222 to 223 °C. In data set [1], this compound returned an IC50 of 618 µM. Also, the IC50 in data set [2] (setting [3]) was 140 µM. Moreover, the IC50 in data set [2] (setting [4]) stood at 520 µM.
Regarding `Cc1c(CCO)sc[n+]1CC(=O)c1ccccc1` [3-(2-phenyl-2-oxoethyl)-4-methyl-5-(2-hydroxyethyl)-thiazolium bromide], the IC50 in data set [2] (setting [3]) stood at 14300 µM.
Regarding `Cc1c(CCO)sc[n+]1CC(=O)c1ccc(Br)cc1` (as salt: bromide) [3-(2-[4^1-bromophenyl]-2-oxoethyl)-4-methyl-5-(2-hydroxyethyl)thiazolium bromide], the melting point is 251 to 252 °C (dec.).
In turn, `Cc1c[n+](CC(=O)c2ccccc2)cs1` [3-(2-phenyl-2-oxoethyl)-5-methyl-thiazolium bromide] returned an IC50 in data set [1] of 13900 µM.
As a reminder, the inhibition is the drop in the measured response relative to a control, in per cent. `Cc1sc[n+](CC(=O)c2ccccc2)c1C` [3-(2-phenyl-2-oxoethyl)-4,5-dimethylthiazolium bromide] returned an IC50 in data set [1] of 48500 µM. For the same compound, the inhibition at 30000 µM in data set [2] (setting [5]) was determined as 56%.
`Cc1c[n+](CC(N)=O)cs1.[Br-]` [3-(2-amino-2-oxoethyl)-5-methyl-thiazolium bromide] showed a melting point of 179 to 180 °C. For the same compound, in data set [1], 28.9 µM corresponded to half-maximal inhibition (IC50).
In the case of `O=C(C[n+]1csc2ccccc21)c1ccccc1.[Br-]`, the melting point was 240 to 241 °C (dec.).
Consider `O=C(C[n+]1ccsc1)c1ccccc1` [3-(2-phenyl-2-oxoethyl)thiazolium bromide], for which the IC50 in data set [2] (setting [3]) was 20 µM; in data set [2] (setting [4]) it was 14 µM.
The compound `CC[n+]1csc(CCO)c1C.[Br-]` had a melting point of 84 to 85 °C.
On the same count and under the same terms, the figure for `CC(=O)OCCc1sc[n+](CC(N)=O)c1C.[Br-]` is 233 to 234 °C.
`COC(=O)C[n+]1csc2ccccc21` [3-(2-methoxy-2-oxoethyl)-benzothiazolium bromide]: the values for the IC50 in data set [2] (setting [3]) and in data set [2] (setting [4]) were 1200 µM and 25900 µM, respectively.
`COC(=O)C[n+]1ccsc1N.[Br-]` displayed a melting point of 191 to 192 °C.
On to `NC(=O)C[n+]1c(N)sc2ccccc21.[Br-]`, for which the melting point fell in the range of 234 to 235 °C.
Consider `O=C(O)C[n+]1csc2ccccc21.[Br-]` [3-(carboxymethyl)benzothiazolium bromide, 3-(carboxymethyl)-benzothiazolium bromide], for which the melting point is 250 °C (dec.). The inhibition at 30000 µM in data set [2] (setting [5]) was 63.7%. The inhibition at 30000 µM in data set [2] (setting [6]) was determined as 17.9%.
In turn, `COC(=O)C[n+]1c(N)sc2ccccc21.[Br-]` yielded a melting point of 236 to 237 °C.
`NC(=O)C[n+]1ccsc1.[Br-]` [3-(2-amino-2-oxoethyl)thiazolium bromide, 3-(2-amino-2-oxoethyl)-thiazolium bromide] yielded a melting point of 205 to 206 °C. The same compound had an IC50 in data set [1] of 226 µM.
For the compound `COC(=O)C[n+]1csc(CCO)c1C.[Br-]` [3-(2-methoxy-2-oxoethyl)-4-methyl-5-(2-hydroxyethyl)-thiazolium bromide], the melting point is 137 to 138 °C.
For `COC(=O)C[n+]1ccsc1` [3-(2-Methoxy-2-oxoethyl)thiazolium bromide], half-maximal inhibition in data set [1] (IC50) required 138 µM. For the same compound, the inhibition at 30000 µM in data set [2] (setting [5]) amounted to 38%; in data set [2] (setting [6]), 41%.
Take `COC(=O)C[n+]1cscc1C.[Br-]` [3-(2-methoxy-2-oxoethyl)-4-methylthiazolium bromide]: the melting point was 149 to 151 °C (dec.). Also, the inhibition at 30000 µM in data set [2] (setting [5]) came out at 54%. Also, the inhibition at 30000 µM in data set [2] (setting [6]) amounted to 41%.
On to `O=C(C[n+]1ccsc1)c1ccc(Br)cc1.[Br-]` [3-(2-[4^1-bromophenyl]-2-oxoethyl)-thiazolium bromide], for which the “% Inhibition Anti-AGE (at mM)” value in data set [2] (at 30 mM, detection with anti-AGE-RNase antibody) amounted to 76%. In data set [2] (at 30 mM, detection with anti-BSA antibody), the “% Inhibition Anti-BSA (at mM)” value was determined as 25%.
As for `COC(=O)C[n+]1csc(C)c1C` [3-(2-methoxy-2-oxoethyl)-4,5-dimethylthiazolium bromide], the midpoint of inhibition in data set [1], the IC50, lay at 138 µM. Further, the inhibition at 30000 µM in data set [2] (setting [5]) came to 50%; in data set [2] (setting [6]) it was 30%.
As to `CC(=O)C[n+]1ccsc1.[Cl-]` [3-(2-methyl-2-oxoethyl)thiazolium chloride], the melting point was 178 to 179 °C. This compound gave an IC50 in data set [2] (IC50 (mM) Anti-AGE, detection with anti-AGE-RNase antibody) of 0.036 µM. In addition, the IC50 in data set [2] (IC50 (mM) Anti-BSA, detection with anti-BSA antibody) came out at 260 µM.
`Cc1c(CCO)sc[n+]1Cc1ccccc1.[Cl-]` [3-benzyl-5-(2-hydroxyethyl)-4-methyl thiazolium chloride] showed a melting point of 144 to 146 °C. The IC50 in data set [2] (setting [3]) was 420 µM. The IC50 in data set [2] (setting [4]) was 550 µM.
For the compound `Cc1c(CCO)sc[n+]1CC(N)=O` [3-(2-amino-2-oxoethyl)-4-methyl-5-(2-hydroxyethyl)thiazolium bromide], the figures for the IC50 in data set [1], in data set [2] (setting [3]) and in data set [2] (setting [4]) were 1260 µM, 12 µM and 120 µM, respectively.
As to `Cc1sc[n+](CC(N)=O)c1C.[Br-]` [3-(2-amino-2-oxoethyl)-4,5-dimethyl-thiazolium bromide], the melting point lay within 147 to 148 °C. The IC50 in data set [1] was 338 µM. Besides, the inhibition at 30000 µM in data set [2] (setting [5]) was 69%. Moreover, the inhibition at 30000 µM in data set [2] (setting [6]) came to 75%.
The matching figures for `COC(=O)C[n+]1csc(C)c1.[Br-]` [3-(2-methoxy-2-oxoethyl)-5-methyl-thiazolium bromide]: 193 to 194 °C (dec.), 73 µM, 72% and 27%.
As to `Nc1sc2ccccc2[n+]1N` [2,3-diamino-benzothiazolium mesitylenesulfonate], the melting point was 212 to 214 °C (dec.). Moreover, in data set [1], the IC50 stood at 74.9 µM. The inhibition at 30000 µM in data set [2] (at 30 mM, detection with anti-AGE-RNase antibody, read-out: % Inhibition Anti-AGE (at mM)) stood at 75%. Besides, the inhibition at 30000 µM in data set [2] (at 30 mM, detection with anti-BSA antibody, read-out: % Inhibition Anti-BSA (at mM)) was found to be 35%.
As for `Cc1csc[n+]1CC(N)=O` [3-(2-amino-2-oxoethyl)-4-methyl-thiazolium bromide], the IC50 in data set [1] amounted to 116 µM; in data set [2] (setting [3]), 4700 µM; in data set [2] (setting [4]) it was 38600 µM.
For the compound `Cc1c(CCO)sc[n+]1CC(=O)c1ccc(Br)cc1` [3-(2-[4^1-bromophenyl]-2-oxoethyl)-4-methyl-5-(2-hydroxyethyl)thiazolium bromide], the IC50 in data set [1] came out at 4510 µM.
In turn, `NC(=O)C[n+]1ccsc1N.[Br-]` showed a melting point of 209 to 210 °C.
In data set [1], `Cc1sc[n+](CC(=O)c2ccc(Br)cc2)c1C` [3-(2-[4^1-bromophenyl]-2-oxoethyl)-4,5-dimethylthiazolium bromide] yielded an IC50 of 2920 µM.
Regarding `COC(=O)C[n+]1csc(CCOC(C)=O)c1C.[Br-]`, the melting point was in the range of 217 to 218 °C.
